Data on nine molecules can be found in patent US8338414B2, “Immunosuppressive agent and anti-tumor agent comprising heterocyclic compound as active ingredient” (Zenyaku Kogyo KabushikiKaisha, priority 2005, dated 2012).

Like-named read-outs stand apart in the source and are kept apart here.

The subject of one data set is A549 lung cancer cells. Nature of the data set: Proliferation inhibitory activity on solid tumor cells, A549. The class given is cell-based. The note with it: Homo sapiens, 72 hours. The protocol: (§1) Used in the test were MCF-7 cells which were established from human breast cancer and were cultured routinely under the conditions of 37° C. and 5% CO2, in MEM medium supplemented with 10% fetal calf serum, 25 mM of HEPES and 0.1 mg/ml kanamycin. The MCF-7 cells in a logarithmic growth phase were treated with trypsin/EDTA to prepare single cell suspension adjusted to 4.0×10^4 cells/ml in MEM medium (supplemented with 10% fetal calf serum, 25 mM of HEPES and 0.1 mg/ml kanamycin). Test compounds were dissolved in DMSO and diluted with RPMI 1640 medium (supplemented with 10% fetal calf serum, 25 mM of HEPES and 0.1 mg/ml kanamycin) to a concentration of […] to 2.0×10^−9M.
(§2) The cell suspension was filled in a 96-wells microplate at a rate of 0.1 ml per well and was cultured for 24 hours so as to make the cells to adhere to the microplate. Then, it was added with 0.1 ml of the sample solution and cultured at 37° C. for 72 hours in 5% CO2.
(§3) 50% Growth inhibition concentrations (GI50 μM) were calculated from growth inhibitions at various sample concentrations.
(§4) In the foregoing, when the cells other than MCF-7 are used, instead of adding 10% fetal bovine serum, the following media were used, and the following single cell suspensions were prepared. • PC-3 prostate cancer cells: 10% fetal bovine serum in F12K medium, single cell suspension of 2×10^4 cells; • A549 lung cancer cells: 10% fetal bovine serum in DMEM medium, single cell suspension of 1.5×10^4 cells; • WiDr colon cancer cells: 10% fetal bovine serum in MEM medium, single cell suspension of 3×10^4 cells; • B16F10 melanoma cells: 10% fetal bovine serum in RPMI 1640 medium, single cell suspension of 1×10^4 cells;

The subject of data set [1] is PC-3 prostate cancer cells. Nature of the data set: Proliferation inhibitory activity on solid tumor cells, PC-3. The data set is classed as cell-based. The note with it: 72 hours. The protocol: as §1, §2, §3, §4
For another data set, the system named is Jurkat cells. Briefly: Proliferation inhibitory activity on hematologic neoplasm cells, Jurkat. The note with it: Homo sapiens, Jurkat, 72 h; 3 days, Alamar Blue. The class given is cell-based. The protocol: (§5) Daudi cells (5×10^5 cells/mL), Jurkat cells (5×10^5 cells/mL), THP-1 cells (5×10^5 cells/mL), U 937 cells (5×10^5 cells/mL), and HL 60 cells (5×10^5 cells/mL) suspended in RPMI 1640 medium (containing 10% fetal bovine serum, 10 mM HEPES, 1 mM pyruvic acid, 4.5 g/L glucose, 100 units/mL penicillin, and 0.1 mg/mL streptomycin) were seeded in 96 well plates at a capacity of 0.135 mL per well. Serial dilutions of test substances were added to respective wells at 15 μL/well, and incubated under conditions of carbon dioxide 5% at 37° C. for 3 days. Thereafter, Alamar Blue solution was added at 50 μL, and after incubation for one day, the fluorescence intensity at 590 nm using an excitation wavelength of 530 nm was determined by Cytoflour 4000 (Applied Biosystems).
On the technique in general: Resazurin is reduced to fluorescent resorufin, in cell work by metabolically active cells.

The next data set has as its system Daudi cells. Briefly: Proliferation inhibitory activity on hematologic neoplasm cells, Daudi. The data set is classed as cell-based. The note with it: Homo sapiens, Daudi, 72 h; 3 days, Alamar Blue. The protocol: as §5
A further data set has as its system THP-1 cells. Nature of the data set: Proliferation inhibitory activity on hematologic neoplasm cells, THP-1. The class given is cell-based. The note with it: Homo sapiens, THP-1, 72 h; 3 days, Alamar Blue. The protocol:
as §5

The test system of data set [2] is Rabbit synoviocytes HIG-82. Briefly: Inhibition assay for proliferation of rabbit synoviocyte. The note with it: Oryctolagus cuniculus, 72 h; HIG-82, 3 days, Alamar Blue. The data set is classed as cell-based. The protocol:
Rabbit synoviocytes HIG-82 suspended in HAM medium (containing 10% fetal bovine serum, 25 mM HEPES, and 0.1 mg/mL kanamycin) (with 4×10^4 cells/mL) were seeded in wells of a 96 well plate at 0.135 mL per well. Then, 15 μL of each of serial dilutions of test substances was added to a respective well, and incubated under conditions of carbon dioxide 5% at a temperature 37° C. Alamar Blue solution was added at 50 μL per well on day 0 and day 3, and incubated for one day, and thereafter fluorescence intensity at 590 nm using an excitation wavelength of 530 nm was determined by Cytoflour 4000 (Applied Biosystems).

The test system of a further data set is MCF-7 cells. Nature of the data set: Proliferation inhibitory activity on solid tumor cells, MCF-7. The data set is classed as cell-based. The note with it: Homo sapiens, MCF7; 72 hours. The protocol:
as §1, §2, §3

The next data set concerns WiDr colon cancer cells. Briefly: Proliferation inhibitory activity on solid tumor cells, WiDr. The data set is classed as cell-based. The note with it: Homo sapiens, 72 hours. The protocol:
as §1, §2, §3, §4

The test system of the next data set is B16F10 melanoma cells. Nature of the data set: Proliferation inhibitory activity on solid tumor cells, B16F10. The class given is cell-based. The note with it: Mus musculus, B16-F10; 72 hours. The protocol: as §1, §2, §3, §4
The test system of another data set is mouse spleen cells. Briefly: Proliferation inhibition assay for mouse spleen cells. The class given is cell-based. The note with it: 72 h, 3 days, Alamar Blue. The protocol: Spleen cells (2×10^6 cells/mL) prepared from C57BL/6N female mice (8 weeks old, purchased from Charles River Laboratories Japan Inc.) were suspended in RPMI 1640 medium (containing 10% fetal bovine serum, 10 mM HEPES, 1 mM pyruvic acid, 4.5 g/L glucose, 100 units/mL penicillin, and 0.1 mg/mL streptomycin), and seeded in wells of a 96 well plate at 0.225 mL per well. Serial dilutions of test substances were added to respective wells, and then concanavalin A (Con A, 3 μg/mL), lipopolysaccharide (LPS, 100 μg/mL), or an anti-mouse IgM antibody (100 μg/mL) were added. Thereafter, they were incubated under conditions of carbon dioxide 5% at a temperature 37° C. for 3 days. Next, Alamar Blue solution was added at 50 μL per 150 μL, and after having cultured for one day, the fluorescence intensity at 590 nm using an excitation wavelength of 530 nm was determined by Cytoflour 4000 (Applied Biosystems).

[3] abbreviates: LPS 100 μg/mL, read-out: Inhibition of LPS response.
[4] abbreviates: concanavalin A 3 μg/mL, read-out: Inhibition of Con A response.

On to `O=C1CCN(c2nc(N3CCOCC3)nc(-n3c(C(F)F)nc4ccccc43)n2)CCN1` [Compound 25, 2-(2-Difluoromethylbenzimidazol-1-yl)-4-morpholino-6-(5-oxo-1,4-diazepan-1-yl)-1,3,5-triazine], for which the melting point lay within 235 to 237 °C. The GI50 with A549 lung cancer cells turned out to be 0.99 µM. For the same molecule, the GI50 in [1] came to 0.27 µM. The same molecule returned an IC50 in the data set on Jurkat cells of 1.59 µM. In addition, the IC50 in the data set with Daudi cells turned out to be 0.19 µM. Further, the IC50 in the data set with THP-1 cells was 0.379 µM. For the same molecule, in data set [2], the IC50 was found to be 0.99 µM. This molecule gave a GI50 in the data set with MCF-7 cells of 0.98 µM. Moreover, the GI50 in the data set with WiDr colon cancer cells stood at 0.92 µM. Also, the GI50 with B16F10 melanoma cells stood at 3.21 µM. The IC50 with mouse spleen cells (setting [3]) lay within 0.1 to 10 µM. The IC50 in the data set on mouse spleen cells (setting [4]) lay within 0.001 to 0.1 µM.

`OCCN1CCN(c2nc(N3CCOCC3)nc(-n3c(C(F)F)nc4ccccc43)n2)CC1` [Compound 27, 2-(2-Difluoromethylbenzimidazol-1-yl)-4-[4-(2-hydroxyethyl)piperazin-1-yl]-6-morpholino-1,3,5-triazine] came in with a melting point of 174 to 177 °C. The same molecule showed a 50% growth inhibitory concentration (GI50) in the data set with A549 lung cancer cells of 1.12 µM. In data set [1], this molecule returned a GI50 of 0.31 µM. Moreover, in the data set with Jurkat cells, the IC50 was found to be 3.6 µM. In the data set on Daudi cells, this molecule yielded an IC50 of 0.324 µM. In the data set on THP-1 cells, this molecule gave an IC50 of 0.73 µM. Also, in data set [2], the IC50 is 1.56 µM. This molecule also yielded a GI50 in the data set on MCF-7 cells of 1.14 µM. In the data set with WiDr colon cancer cells, this molecule yielded a GI50 of 1.32 µM. In the data set with B16F10 melanoma cells, this molecule yielded a GI50 of 4.63 µM. In the data set on mouse spleen cells (setting [3]), the IC50 fell in the range of 0.1 to 10 µM. Also, in the data set with mouse spleen cells (setting [4]), the IC50 was at most 0.001 µM.

The molecule `O=C(Cc1ccccc1)N1CCN(c2nc(N3CCOCC3)nc(-n3c(C(F)F)nc4ccccc43)n2)CC1` [Compound 29, 2-(2-Difluoromethylbenzimidazol-1-yl)-4-(4-benzylcarbonylpiperazin-1-yl)-6-morpholino-1,3,5-triazine] displayed a melting point of 178 to 181 °C. The molecule further registered a GI50 in the data set with A549 lung cancer cells of 1.32 µM. The same molecule showed a GI50 in data set [1] of 0.32 µM. In addition, the GI50 in the data set on MCF-7 cells came out at 0.7 µM. In the data set on WiDr colon cancer cells, this molecule came in with a GI50 of 2.58 µM. In addition, in the data set on B16F10 melanoma cells, the GI50 is 3.93 µM.

In turn, `CC(=O)CN1CCN(c2nc(N3CCOCC3)nc(-n3c(C(F)F)nc4ccccc43)n2)CC1` [Compound 30, 4-(4-Acetonylpiperazin-1-yl)-2-(2-difluoromethylbenzimidazol-1-yl)-6-morpholino-1,3,5-triazine] had a melting point of 79 to 81 °C. For the same molecule, in the data set on A549 lung cancer cells, the GI50 stood at 1.52 µM. In data set [1], this molecule returned a GI50 of 0.77 µM. In the data set with MCF-7 cells, this molecule showed a GI50 of 0.41 µM. In the data set on WiDr colon cancer cells, this molecule gave a GI50 of 3.74 µM. This molecule showed a GI50 in the data set on B16F10 melanoma cells of 3.32 µM.

Molecule `O=C(c1ccco1)N1CCN(c2nc(N3CCOCC3)nc(-n3c(C(F)F)nc4ccccc43)n2)CC1` [Compound 31, 2-(2-Difluoromethylbenzimidazol-1-yl)-4-[4-(2-furoyl)piperazin-1-yl]-6-morpholino-1,3,5-triazine] registered a melting point of 220 to 222 °C. This molecule also came in with a GI50 in the data set on A549 lung cancer cells of 0.65 µM. The GI50 in data set [1] is 0.32 µM. The GI50 in the data set with MCF-7 cells was found to be 0.05 µM. In the data set on WiDr colon cancer cells, this molecule came in with a GI50 of 1.43 µM. This molecule also returned a GI50 with B16F10 melanoma cells of 1.51 µM.

For `CN(C)C(=O)N1CCN(c2nc(N3CCOCC3)nc(-n3c(C(F)F)nc4ccccc43)n2)CC1` [Compound 32, 2-(2-Difluoromethylbenzimidazol-1-yl)-4-[4-(N,N-dimethylcarbamoyl)piperazin-1-yl]-6-morpholino-1,3,5-triazine], the melting point lay in the range of 203 to 205 °C. The molecule also came in with a GI50 in the data set with A549 lung cancer cells of 0.83 µM. In [1], it took 0.38 µM to inhibit growth by half (GI50). In addition, the GI50 in the data set with MCF-7 cells is below 0.04 µM. The molecule also had a GI50 in the data set with WiDr colon cancer cells of 1.33 µM. Besides, in the data set with B16F10 melanoma cells, the GI50 was found to be 2.14 µM.

`COCC(=O)N1CCN(c2nc(N3CCOCC3)nc(-n3c(C(F)F)nc4ccccc43)n2)CC1` [Compound 33, 2-(2-Difluoromethylbenzimidazol-1-yl)-4-(4-methoxylacetylpiperazin-1-yl)-6-morpholino-1,3,5-triazine] showed a melting point of 72 to 75 °C. The molecule also came in with a GI50 in the data set with A549 lung cancer cells of 1.05 µM. The molecule further registered a GI50 in data set [1] of 0.51 µM. Further, the GI50 in the data set with MCF-7 cells is below 0.04 µM. In the data set on WiDr colon cancer cells, this molecule had a GI50 of 1.46 µM. This molecule returned a GI50 in the data set with B16F10 melanoma cells of 2.91 µM.

As for `OCCCN1CCN(c2nc(N3CCOCC3)nc(-n3c(C(F)F)nc4ccccc43)n2)CC1` [Compound 34, 2-(2-Difluoromethylbenzimidazol-1-yl)-4-[4-(3-hydroxypropyl)piperazin-1-yl]-6-morpholino-1,3,5-triazine], the GI50 is 1.38 µM with A549 lung cancer cells; 0.55 µM in [1]; 0.14 µM with MCF-7 cells; 2.07 µM with WiDr colon cancer cells; 2.91 µM with B16F10 melanoma cells.

For `CCC(=O)N1CCN(c2nc(N3CCOCC3)nc(-n3c(C(F)F)nc4ccccc43)n2)CC1` [Compound 35, 2-(2-Difluoromethylbenzimidazol-1-yl)-4-morpholino-6-(4-propionylpiperazin-1-yl)-1,3,5-triazine], the melting point is 198 to 202 °C. Further, growth with A549 lung cancer cells was halved (GI50) at 1.22 µM. Further, in data set [1], it took 0.73 µM to inhibit growth by half (GI50). The GI50 in the data set on MCF-7 cells stood at 0.1 µM. The molecule further displayed a GI50 with WiDr colon cancer cells of 2.1 µM. This molecule came in with a GI50 in the data set on B16F10 melanoma cells of 2.84 µM.

By GI50 is commonly meant the concentration at which growth is held to half of that of the control. Low readings indicate more potent growth inhibition, high ones less potent growth inhibition. For orientation: melting point means the temperature of the solid-liquid transition.
